Measured values: ChEMBL document CHEMBL6071165, “Design, synthesis and biological evaluation of plant-derived miliusol derivatives achieve TNBC profound regression in vivo” (Eur J Med Chem, 2024)
The source made the active and inactive calls. The calls are words filed in the database; no cut-off is given here.

Key:
BT-549 [1] = assay: Induction of apoptosis in human BT-549 cells assessed as late apoptotic cells at 0.5 uM incubated for 24 hrs by Annexin V-PI staining based flow cytometric analysis (reference value: 2.95%); assay type: functional
BT-549 [2] = assay: Antiproliferative activity against human BT-549 cells xenografted in female BALB/c mouse model assessed as fold change in downregulation of MMP-2 protein level at 5 mg/kg administered subcutaneously incubated for 24 hrs by Western blot analysis (reference value: 1.00%); assay type: functional; conditions: route sc
MDA-MB-231 [3] = assay: Antitumor activity against human MDA-MB-231 cells xenografted in female BALB/c mouse model assessed as reduction in tumor weight administered subcutaneously and measured every day; assay type: functional, cell-based; conditions: dose 5-20 mg/kg, route sc
MDA-MB-231 [4] = assay: Antiproliferative activity against human MDA-MB-231 cells xenografted in female BALB/c mouse model assessed as fold change in upregulation of BAX protein level at 10 mg/kg administered subcutaneously incubated for 24 hrs by Western blot analysis (reference value: 1.00%); assay type: functional; conditions: route sc
BT-549 [5] = assay: Induction of apoptosis in human BT-549 cells assessed as necrotic cells at 2 uM incubated for 24 hrs by Annexin V-PI staining based flow cytometric analysis (reference value: 3.32%); assay type: functional
[6] = Toxicity in female BALB/c mouse xenografted with human BT-549 cells assessed as effect on pathological changes in liver at 5 to 20 mg/kg, sc by H and E staining based analysis; assay type: organism-based; conditions: in vivo, dose 5-20 mg/kg
[7] = Toxicity in female BALB/c mouse xenografted with human MDA-MB-231 cells assessed as effect on pathological changes in kidney at 5 to 20 mg/kg, sc by H and E staining based analysis; assay type: organism-based; conditions: in vivo, dose 5-20 mg/kg
BT-549 [8] = assay: Antiproliferative activity against human BT-549 cells xenografted in female BALB/c mouse model assessed as fold change in downregulation of MMP-2 protein level at 20 mg/kg administered subcutaneously incubated for 24 hrs by Western blot analysis (reference value: 1.00%); assay type: functional; conditions: route sc
BT-549 [9] = assay: Antiproliferative activity against human BT-549 cells xenografted in female BALB/c mouse model assessed as as fold change in cleavage of caspase-3 level at 10 mg/kg administered subcutaneously incubated for 24 hrs by Western blot analysis (reference value: 1.00%); assay type: functional; conditions: route sc
MDA-MB-231 [10] = assay: Inhibition of glycolysis in human MDA-MB-231 cells assessed as decrease in GLUT4 protein level at 0.5 to 2 uM incubated for 24 hrs by Western blot analysis; assay type: functional, cell-based; conditions: dose 0.5-2 µM
MDA-MB-231 [11] = assay: Induction of apoptosis in human MDA-MB-231 cells assessed as viable cells at 1 uM incubated for 24 hrs by Annexin V-PI staining based flow cytometric analysis (reference value: 96.5%); assay type: functional; conditions: read-out: Activity
MDA-MB-231 [12] = assay: Induction of apoptosis in human MDA-MB-231 cells assessed as early apoptotic cells at 2 uM incubated for 24 hrs by Annexin V-PI staining based flow cytometric analysis (reference value: 0.42%); assay type: functional
MDA-MB-231 [13] = assay: Induction of apoptosis in human MDA-MB-231 cells assessed as upregulation of cleavage of caspase-3 expression at 0.5 to 2 uM incubated for 24 hrs by Western blot analysis; assay type: functional, cell-based; conditions: dose 0.5-2 µM
[14] = Toxicity in female BALB/c mouse xenografted with human BT-549 cells assessed as effect on pathological changes in lung at 5 to 20 mg/kg, sc by H and E staining based analysis; assay type: organism-based; conditions: in vivo, dose 5-20 mg/kg
Mitochondrial membrane = assay: Disruption of mitochondrial potential loss in human BT-549 cells assessed as decrease in JC-1 aggregates at 1 uM incubated for 24 hrs by JC-1 staining based flow cytometric analysis (Rvb =98.7%); assay type: cell membranes; design: scale not given: the % may be the effect or the level left
MDA-MB-231 [15] = assay: Induction of apoptosis in human MDA-MB-231 cells assessed as upregulation of cleavage of caspase-9 expression at 0.5 to 2 uM incubated for 24 hrs by Western blot analysis; assay type: functional, cell-based; conditions: dose 0.5-2 µM
BT-549 [16] = assay: Antiproliferative activity against human BT-549 cells xenografted in female BALB/c mouse model assessed as fold change in inhibition of PKM2 expression at 20 mg/kg administered subcutaneously incubated for 24 hrs by Western blot analysis (reference value: 1.05%); assay type: functional; conditions: route sc
BT-549 [17] = assay: Induction of apoptosis in human BT-549 cells assessed as early apoptotic cells at 0.5 uM incubated for 24 hrs by Annexin V-PI staining based flow cytometric analysis (reference value: 0.78%); assay type: functional
MDA-MB-231 [18] = assay: Induction of ER stress in human MDA-MB-231 cells assessed as activation of Xbp-1s protein level incubated for 24 hrs by Western blot analysis; assay type: functional, cell-based; conditions: dose 0.5-2 µM
[19] = Toxicity in female BALB/c mouse xenografted with human MDA-MB-231 cells assessed as effect on pathological changes in lung at 5 to 20 mg/kg, sc by H and E staining based analysis; assay type: organism-based; conditions: in vivo, dose 5-20 mg/kg
MDA-MB-231 [20] = assay: Induction of apoptosis in human MDA-MB-231 cells assessed as early apoptotic cells at 1 uM incubated for 24 hrs by Annexin V-PI staining based flow cytometric analysis (reference value: 0.42%); assay type: functional
MDA-MB-231 [21] = assay: Inhibition of cell proliferation in human MDA-MB-231 cells assessed as reduction in Ki-67 expression at 0.5 to 2 uM incubated for 24 hrs by DAPI staining based immunofluorescence analysis; assay type: functional; conditions: dose 0.5-2 µM
[22] = target: Eukaryotic translation initiation factor 3 subunit D (Homo sapiens) (UniProt O15371); assay: Induction of thermal stabilization of EIF3D in human BT-549 cells at 1 uM by CETSA analysis; assay type: cell-based
Eukaryotic translation initiation factor 3 subunit D (Homo sapiens), sequence (O15371 whole entry): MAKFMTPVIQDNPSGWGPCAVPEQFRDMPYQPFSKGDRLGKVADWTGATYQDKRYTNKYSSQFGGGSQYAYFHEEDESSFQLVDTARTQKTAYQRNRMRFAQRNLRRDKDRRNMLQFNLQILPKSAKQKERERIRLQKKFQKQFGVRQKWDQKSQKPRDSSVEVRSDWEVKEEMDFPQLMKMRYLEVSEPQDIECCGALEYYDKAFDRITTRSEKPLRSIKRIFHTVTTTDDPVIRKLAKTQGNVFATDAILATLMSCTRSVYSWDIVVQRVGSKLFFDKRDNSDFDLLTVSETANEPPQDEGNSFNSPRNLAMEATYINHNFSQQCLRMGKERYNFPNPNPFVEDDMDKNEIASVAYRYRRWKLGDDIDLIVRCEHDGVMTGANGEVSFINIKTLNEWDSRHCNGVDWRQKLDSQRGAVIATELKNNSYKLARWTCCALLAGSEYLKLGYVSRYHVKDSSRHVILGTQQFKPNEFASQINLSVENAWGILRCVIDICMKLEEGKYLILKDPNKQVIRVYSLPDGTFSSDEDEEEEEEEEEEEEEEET

BT-549 [23] = assay: Induction of apoptosis in human BT-549 cells assessed as necrotic cells at 0.5 uM incubated for 24 hrs by Annexin V-PI staining based flow cytometric analysis (reference value: 3.32%); assay type: functional
MDA-MB-231 [24] = assay: Downregulation of LDHA expression in human MDA-MB-231 cells at 1 uM incubated for 24 hrs by DAPI staining based immunofluorescence analysis; assay type: functional, cell-based
MDA-MB-231 [25] = assay: Induction of apoptosis in human MDA-MB-231 cells incubated for 24 hrs by Annexin V-PI staining based flow cytometric analysis; assay type: functional, cell-based; conditions: dose 0.5-2 µM
MDA-MB-231 [26] = assay: Antiproliferative activity against human MDA-MB-231 cells xenografted in female BALB/c mouse model assessed as fold change in inhibition of PKM2 expression at 5 mg/kg administered subcutaneously incubated for 24 hrs by Western blot analysis (reference value: 1.00%); assay type: functional; conditions: route sc
BT-549 [27] = assay: Induction of apoptosis in human BT-549 cells assessed as early apoptotic cells at 2 uM incubated for 24 hrs by Annexin V-PI staining based flow cytometric analysis (reference value: 0.78%); assay type: functional
MDA-MB-231 [28] = assay: Inhibition of tumor sphere formation in human MDA-MB-231 cells at 1 uM incubated for 24 hrs by microscopic analysis; assay type: functional, cell-based
BT-549 [29] = assay: Induction of apoptosis in human BT-549 cells assessed as early apoptotic cells at 1 uM incubated for 24 hrs by Annexin V-PI staining based flow cytometric analysis (reference value: 0.78%); assay type: functional
MDA-MB-231 [30] = assay: Antiproliferative activity against human MDA-MB-231 cells xenografted in female BALB/c mouse model assessed as fold change in upregulation of BAX protein level at 20 mg/kg administered subcutaneously incubated for 24 hrs by Western blot analysis (reference value: 1.00%); assay type: functional; conditions: route sc
[31] = Toxicity in female BALB/c mouse assessed as change in liver administered subcutaneously measured upto 16 days; assay type: tissue-based; conditions: in vivo, sc, 384 h, time < 16 day

- Activity (Mitochondrial membrane): 43.2%
- Activity [22]: Active
Structure (SMILES): CC(C)=CCC/C(C)=C/[C@H]1OC(=O)CC12C[C@H](OC(=O)Cc1ccc(NC(=O)/C=C/c3ccccc3)cc1)C=CC2=O (some centres not stated)
- Activity (BT-549 [1]): 3.62%
- fold change (FC) (BT-549 [2]): 0.99
- Activity (MDA-MB-231 [3]): Dose-Dependent Effect
- fold change (FC) (MDA-MB-231 [4]): 1.13
- Activity (BT-549 [5]): 4.02%
- Activity [6]: Non-Toxic
- Activity [7]: Non-Toxic
- fold change (FC) (BT-549 [8]): 0.17
- fold change (FC) (BT-549 [9]): 1.72
- inhibition (MDA-MB-231 [10]): Active
- viability at 1 µM (MDA-MB-231 [11]): 42%
- Activity (MDA-MB-231 [12]): 2.23%
- Activity (MDA-MB-231 [13]): Active
- Activity [14]: Non-Toxic
- Activity (MDA-MB-231 [15]): Active
- fold change (FC) (BT-549 [16]): 0.16
- Activity (BT-549 [17]): 0.91%
- Activity (MDA-MB-231 [18]): Active
- Activity [19]: Non-Toxic
- Activity (MDA-MB-231 [20]): 0.97%
- inhibition (MDA-MB-231 [21]): Active
- Activity (BT-549 [23]): 3.73%
- Activity (MDA-MB-231 [24]): Active
- Activity (MDA-MB-231 [25]): Dose-Dependent Effect
- fold change (FC) (MDA-MB-231 [26]): 0.81
- Activity (BT-549 [27]): 11.1%
- inhibition (MDA-MB-231 [28]): Active
- Activity (BT-549 [29]): 3.62%
- fold change (FC) (MDA-MB-231 [30]): 1.82
- Activity [31]: Non-Toxic
